Test results taken from US12344597B2, “Alkoxy-substituted pyridinyl derivatives as LPA1 receptor antagonists and their use in the treatment of fibrosis” (IDORSIA PHARMACEUTICALS LTD, priority 2018, dated 2025).

Biological target: human LPA1 receptor (Homo sapiens (Human), UniProt Q92633)
Test: Beta-arrestin recruitment assay to determine IC50 values for human LPAR1
Type: cell-based
Settings: antagonist mode, Tango EDG2-bla U2OS cells, LPA 18:1 500 nM final
Summary of the method: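 Tango EDG2-bla U2OS cells: LPA-driven beta-arrestin/TEV protease recruitment releases Gal4-VP16, inducing beta-lactamase reporter read with live-cell substrate. Cells seeded 20 h at 37 °C beforehand. IC50 is antagonist concentration inhibiting 50% of maximal response.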

Chain of human LPA1 receptor (Q92633 whole entry): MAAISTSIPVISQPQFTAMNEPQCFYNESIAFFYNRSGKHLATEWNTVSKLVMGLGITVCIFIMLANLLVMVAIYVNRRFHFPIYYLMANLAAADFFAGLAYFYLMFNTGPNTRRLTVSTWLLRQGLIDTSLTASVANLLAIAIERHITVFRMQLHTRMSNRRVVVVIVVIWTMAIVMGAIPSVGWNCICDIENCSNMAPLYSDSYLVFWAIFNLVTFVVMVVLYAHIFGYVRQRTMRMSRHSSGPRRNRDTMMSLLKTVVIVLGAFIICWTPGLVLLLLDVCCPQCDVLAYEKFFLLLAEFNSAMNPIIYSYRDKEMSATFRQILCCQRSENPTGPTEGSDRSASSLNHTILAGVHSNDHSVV

| Compound | IC50 |
| --- | --- |
| Cc1ccc(NC(=O)C2(c3ccccc3C(C)C)CN(C(=O)CC3(O)COC3)C2)c(OC(F)F)n1 [Ex 12-13, N-(2-(difluoromethoxy)-6-methylpyridin-3-yl)-1-(2-(3-hydroxyoxetan-3-yl)acetyl)-3-(2-isopropylphenyl)azetidine-3-carboxamide] | 17 nM |
| COCCN(CC(=O)N1CCC(C(=O)Nc2ccc(C)nc2OC(F)F)(c2ccccc2C(C)C)CC1)C(=O)OC(C)(C)C [Ex 12-47, tert-butyl (2-(4-((2-(difluoromethoxy)-6-methylpyridin-3-yl)carbamoyl)-4-(2-isopropylphenyl)piperidin-1-yl)-2-oxoethyl)(2-methoxyethyl)carbamate] | 59 nM |
| Cc1ccc(C2(C(=O)Nc3ccc(C)nc3OC(F)F)CNC2)c(C(C)C)c1 [Ex 35, N-(2-(difluoromethoxy)-6-methylpyridin-3-yl)-3-(2-isopropyl-4-methylphenyl)azetidine-3-carboxamide] | 75 nM |
| CCOC(=O)COCCN1CC(C(=O)Nc2ccc(C)nc2OC(F)F)(c2ccccc2C(C)C)C1 [Ex 11-74, ethyl 2-(2-(3-((2-(difluoromethoxy)-6-methylpyridin-3-yl)carbamoyl)-3-(2-isopropylphenyl)azetidin-1-yl)ethoxy)acetate] | 28 nM |
| Cc1ccc(NC(=O)C2(c3ccccc3C(C)C)CN(C(=O)C3(C(=O)O)CNC3)C2)c(OC(F)F)n1 [Ex 12-114, 3-(3-((2-(difluoromethoxy)-6-methylpyridin-3-yl)carbamoyl)-3-(2-isopropylphenyl)azetidine-1-carbonyl)azetidine-3-carboxylic acid] | 2680 nM |
| Cc1ccc(NC(=O)C2(c3ccccc3C(C)C)CN(C(=O)CCC(=O)C(F)(F)F)C2)c(OC(F)F)n1 [Ex 12-11, N-(2-(difluoromethoxy)-6-methylpyridin-3-yl)-3-(2-isopropylphenyl)-1-(5,5,5-trifluoro-4-oxopentanoyl)azetidine-3-carboxamide] | 7 nM |
| COC(=O)CCC(=O)N1CCC(C(=O)Nc2ccc(C)nc2OC(F)F)(c2ccccc2C(C)C)CC1 [Ex 12-72, methyl 4-(4-((2-(difluoromethoxy)-6-methylpyridin-3-yl)carbamoyl)-4-(2-isopropylphenyl)piperidin-1-yl)-4-oxobutanoate] | 4 nM |
| Cc1ccc(NC(=O)C2(c3ccccc3C(C)C)CN(C(=O)C3(C(=O)O)CC3)C2)c(OC(F)F)n1 [Ex 12-64, 1-(3-((2-(difluoromethoxy)-6-methylpyridin-3-yl)carbamoyl)-3-(2-isopropylphenyl)azetidine-1-carbonyl)cyclopropane-1-carboxylic acid] | 19 nM |
| Cc1ccc(NC(=O)C2(c3ccccc3C(C)C)CN(S(=O)(=O)CCC(=O)NOCc3ccccc3)C2)c(OC(F)F)n1 [Ex 13-28, 1-((3-((benzyloxy)amino)-3-oxopropyl)sulfonyl)-N-(2-(difluoromethoxy)-6-methylpyridin-3-yl)-3-(2-isopropylphenyl)azetidine-3-carboxamide] | 110 nM |
| Cc1ccc(NC(=O)C2(c3ccccc3C(C)C)CN(S(=O)(=O)C3(CC(=O)O)CC3)C2)c(OC(F)F)n1 [Ex 13-14, 2-(1-((3-((2-(difluoromethoxy)-6-methylpyridin-3-yl)carbamoyl)-3-(2-isopropylphenyl)azetidin-1-yl)sulfonyl)cyclopropyl)acetic acid] | 10 nM |
| Cc1ccc(NC(=O)C2(c3ccccc3C(C)C)CN(Cc3cnc(C(=O)O)cn3)C2)c(OC(F)F)n1 [Ex 11-55, 5-((3-((2-(difluoromethoxy)-6-methylpyridin-3-yl)-carbamoyl)3-(2-isopropylphenyl)azetidin-1-yl)methyl)pyrazine-2-carboxylic acid] | 142 nM |
| Cc1ccc(NC(=O)C2(c3ccccc3C(C)C)CN(C(=O)CNCC3(C(=O)O)CC3)C2)c(OC(F)F)n1 [Ex 46, 1-(((2-(3-((2-(difluoromethoxy)-6-methylpyridin-3-yl)carbamoyl)-3-(2-isopropylphenyl)azetidin-1-yl)-2-oxoethyl)amino)methyl)cyclopropane-1-carboxylic acid] | 100 nM |
| N-(2-(difluoromethoxy)-6-methylpyridin-3-yl)-1-(3-(hydroxyamino)propanoyl)-3-(2-isopropylphenyl)azetidine-3-carboxamide [Ex 12-133] | 140 nM |
| C=C(CC(=O)O)C(=O)N1CC(C(=O)Nc2ccc(C)nc2OC(F)F)(c2ccccc2C(C)C)C1 [Ex 12-93, 3-(3-((2-(difluoromethoxy)-6-methylpyridin-3-yl)carbamoyl)-3-(2-isopropylphenyl)azetidine-1-carbonyl)but-3-enoic acid] | 7 nM |
| Cc1ccc(NC(=O)C2(c3ncccc3C(C)C)CN(c3nc(C)ccc3F)C2)c(OC(F)F)n1 [Ex 65, N-(2-(difluoromethoxy)-6-methylpyridin-3-yl)-1-(3-fluoro-6-methylpyridin-2-yl)-3-(3-isopropylpyridin-2-yl)azetidine-3-carboxamide] | 37 nM |
| O=C(Nc1ncc(Cl)cc1OC(F)F)C1(c2ccccc2C2CCCC2)CNC1 [Ex 76, N-(5-chloro-3-(difluoromethoxy)pyridin-2-yl)-3-(2-cyclopentylphenyl)azetidine-3-carboxamide] | 19 nM |
| Cc1ccc(NC(=O)C2(c3ccccc3C(C)C)CN(C(=O)CNC(N)=O)C2)c(OC(F)F)n1 [Ex 12-10, 1-(carbamoylglycyl)-N-(2-(difluoromethoxy)-6-methylpyridin-3-yl)-3-(2-isopropylphenyl)azetidine-3-carboxamide] | 155 nM |
| Cc1ccc(NC(=O)C2(c3ccccc3C3=CCCC3)CNC2)c(OC(F)F)n1 [Ex 26, 3-(2-(cyclopent-1-en-1-yl)phenyl)-N-(2-(difluoromethoxy)-6-methylpyridin-3-yl)azetidine-3-carboxamide] | 235 nM |
| COC(=O)CS(=O)(=O)N1CCC(C(=O)Nc2ccc(C)nc2OC(F)F)(c2ccccc2C(C)C)CC1 [Ex 13-2, methyl 2-((4-((2-(difluoromethoxy)-6-methylpyridin-3-yl)carbamoyl)-4-(2-isopropylphenyl)piperidin-1-yl)sulfonyl)acetate] | 7 nM |
| Cc1ccc(NC(=O)C2(c3ccccc3C(C)C)CN(CC3(CO)COC3)C2)c(OC(F)F)n1 [Ex 11-89, N-(2-(difluoromethoxy)-6-methylpyridin-3-yl)-1-((3-(hydroxymethyl)oxetan-3-yl)methyl)-3-(2-isopropylphenyl)azetidine-3-carboxamide] | 73 nM |
| Cc1ccc(NC(=O)C2(c3ncccc3C(C)C)CN(C(=O)NC3CC3)C2)c(OC(F)F)n1 [Ex 63, N1-cyclopropyl-N3-(2-(difluoromethoxy)-6-methylpyridin-3-yl)-3-(3-isopropylpyridin-2-yl)azetidine-1,3-dicarboxamide] | 8 nM |
| Cc1ccc(NC(=O)C2(c3ccccc3C(C)C)CN(C(=O)[C@@H](N)CO)C2)c(OC(F)F)n1 [Ex 12-40, 1-(L-seryl)-N-(2-(difluoromethoxy)-6-methylpyridin-3-yl)-3-(2-isopropylphenyl)azetidine-3-carboxamide] | 60 nM |
| Cc1ccc(NC(=O)C2(c3ccccc3C(C)C)CN(C(=O)CC3(N)COC3)C2)c(OC(F)F)n1 [Ex 12-38, 1-(2-(3-aminooxetan-3-yl)acetyl)-N-(2-(difluoromethoxy)-6-methylpyridin-3-yl)-3-(2-isopropylphenyl)azetidine-3-carboxamide] | 25 nM |

Further lines, results first:

| IC50 | Compound |
| --- | --- |
| 89 nM | Cc1ccc(NC(=O)C2(c3ccccc3C3=CCCC3)CN(C(=O)CC(C)(C)C(=O)O)C2)c(OC(F)F)n1 [Ex 31-4, 4-(3-(2-(cyclopent-1-en-1-yl)phenyl)-3-((2-(difluoromethoxy)-6-methylpyridin-3-yl)carbamoyl)azetidin-1-yl)-2,2-dimethyl-4-oxobutanoic acid] |
| 9 nM | COC(=O)[C@@H](NC(=O)N1CC(C(=O)Nc2ccc(C)nc2OC(F)F)(c2ccccc2C(C)C)C1)C(C)C [Ex 17-6, methyl (3-((2-(difluoromethoxy)-6-methylpyridin-3-yl)carbamoyl)-3-(2-isopropylphenyl)azetidine-1-carbonyl)-L-valinate] |
| 143 nM | COC(=O)C(C)(C)OC(=O)N1CC(C(=O)Nc2ccc(C)nc2OC(F)F)(c2ccccc2C(C)C)C1 [Ex 14-6, 1-methoxy-2-methyl-1-oxopropan-2-yl 3-((2-(difluoromethoxy)-6-methylpyridin-3-yl)carbamoyl)-3-(2-isopropylphenyl)azetidine-1-carboxylate] |
| 12 nM | Cc1ccc(NC(=O)C2(c3ccccc3C(C)C)CN(c3ccc(C(=O)O)nn3)C2)c(OC(F)F)n1 [Ex 18-7, 6-(3-((2-(difluoromethoxy)-6-methylpyridin-3-yl)carbamoyl)-3-(2-isopropylphenyl)azetidin-1-yl)pyridazine-3-carboxylic acid] |
| 55 nM | Cc1cnc(NC(=O)C2(c3ccccc3C(C)C)CN(S(=O)(=O)CCC(=O)OCc3ccccc3)C2)c(OC(F)F)c1 [Ex 80-1, benzyl 3-((3-((3-(difluoromethoxy)-5-methylpyridin-2-yl)carbamoyl)-3-(2-isopropylphenyl)azetidin-1-yl)sulfonyl)propanoate] |
| 40 nM | Cc1ccc(C2(C(=O)Nc3ccc(C)nc3OC(F)F)CN(C(=O)CC(C)(C)C(=O)O)C2)c(C(C)C)c1 [Ex 39-3, 4-(3-((2-(difluoromethoxy)-6-methylpyridin-3-yl)carbamoyl)-3-(2-isopropyl-4-methylphenyl)azetidin-1-yl)-2,2-dimethyl-4-oxobutanoic acid] |
| 18 nM | COC(=O)CC(C)(C)NC(=O)N1CC(C(=O)Nc2ccc(C)nc2OC(F)F)(c2ccccc2C(C)C)C1 [Ex 17-1, Methyl 3-(3-((2-(difluoromethoxy)-6-methylpyridin-3-yl)carbamoyl)-3-(2-isopropylphenyl)azetidine-1-carboxamido)-3-methylbutanoate] |
| 12 nM | Cc1ccc(NC(=O)C2(c3ccccc3C(C)C)CN(C(=O)NCC(C)(C)C(=O)O)C2)c(OC(F)F)n1 [Ex 17-17, 3-(3-((2-(difluoromethoxy)-6-methylpyridin-3-yl)carbamoyl)-3-(2-isopropylphenyl)azetidine-1-carboxamido)-2,2-dimethylpropanoic acid] |
